Reference: ChEMBL document CHEMBL4814042, “Design and synthesis of C-aryl angular luotonins via a one-pot aza-Nazarov-Friedlander sequence and their Topo-I inhibition studies along with C-aryl vasicinones and luotonins” (Bioorg Med Chem Lett, 2021)
Calls of active or inactive are those of the source. The calls are words filed in the database; no cut-off is given here.

Each molecule was assayed against T1, DNA topoisomerase 1 (Homo sapiens) (UniProt P11387) (assay: Inhibition of human Topoisomerase 1 at 10 to 100 uM). Details: dose 10-100 µM.
T1 sequence (whole entry): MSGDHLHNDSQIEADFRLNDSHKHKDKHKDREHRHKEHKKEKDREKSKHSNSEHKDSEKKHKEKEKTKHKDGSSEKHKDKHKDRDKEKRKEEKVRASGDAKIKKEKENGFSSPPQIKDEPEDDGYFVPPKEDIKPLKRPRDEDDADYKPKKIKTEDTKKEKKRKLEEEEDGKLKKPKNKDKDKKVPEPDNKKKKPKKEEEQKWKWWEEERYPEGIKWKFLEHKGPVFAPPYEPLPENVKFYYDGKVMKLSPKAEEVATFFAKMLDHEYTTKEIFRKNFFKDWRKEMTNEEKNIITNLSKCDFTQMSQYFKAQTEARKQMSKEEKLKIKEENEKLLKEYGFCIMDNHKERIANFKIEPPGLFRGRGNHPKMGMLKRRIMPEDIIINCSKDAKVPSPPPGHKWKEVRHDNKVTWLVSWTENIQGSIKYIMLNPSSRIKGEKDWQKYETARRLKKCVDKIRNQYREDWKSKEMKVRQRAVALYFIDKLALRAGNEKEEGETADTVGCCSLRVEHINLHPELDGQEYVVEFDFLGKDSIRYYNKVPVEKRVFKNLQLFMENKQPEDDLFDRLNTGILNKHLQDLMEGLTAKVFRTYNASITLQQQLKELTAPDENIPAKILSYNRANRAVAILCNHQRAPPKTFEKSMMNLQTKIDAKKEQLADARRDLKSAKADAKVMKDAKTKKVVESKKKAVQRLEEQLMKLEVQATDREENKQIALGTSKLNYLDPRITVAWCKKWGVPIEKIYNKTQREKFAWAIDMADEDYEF

inhibition, active:
O=c1c2ccccc2nc2n1[C@H](c1cccc(Br)c1)C[C@@H]2O

What follows are molecules tested against T1, DNA topoisomerase 1 (Homo sapiens) (assay: Inhibition of human Topoisomerase 1 at 1 to 100 uM). Details: dose 1-100 µM.

inhibition, active:
CSc1ccc([C@@H]2C[C@H](O)c3nc4ccccc4c(=O)n32)cc1

Each molecule was assayed against T1, DNA topoisomerase 1 (Homo sapiens) (assay: Inhibition of human Topoisomerase 1 at 100 uM). Details: not given.

inhibition, active:
O=c1c2ccccc2nc2n1[C@H](c1ccc(C(F)(F)F)cc1)C[C@@H]2O

These molecules were tested against T1, DNA topoisomerase 1 (Homo sapiens) (assay: Inhibition of human Topoisomerase 1 at 0.1 to 100 uM). Details: dose 0.1-100 µM.

inhibition, active:
O=c1nc2n(c3ccccc13)C(c1ccc(C(F)(F)F)cc1)c1cc3ccccc3nc1-2 (configuration not stated)
O=c1c2ccccc2nc2n1C(c1cccc(Br)c1)c1cc3ccccc3nc1-2 (configuration not stated)
COc1ccc(C2c3cc4ccccc4nc3-c3nc(=O)c4ccccc4n32)cc1 (configuration not stated)
Cc1ccc(C2c3cc4ccccc4nc3-c3nc4ccccc4c(=O)n32)cc1 (configuration not stated)
O=c1c2ccccc2nc2n1C(c1ccccc1)c1cc3ccccc3nc1-2 (configuration not stated)
CSc1ccc(C2c3cc4ccccc4nc3-c3nc4ccccc4c(=O)n32)cc1 (configuration not stated)
Cc1ccccc1C1c2cc3ccccc3nc2-c2nc(=O)c3ccccc3n21 (configuration not stated)
O=c1nc2n(c3ccccc13)C(c1ccccc1)c1cc3ccccc3nc1-2 (configuration not stated)
O=c1nc2n(c3ccccc13)C(c1cccc(Br)c1)c1cc3ccccc3nc1-2 (configuration not stated)
COc1cccc(C2c3cc4ccccc4nc3-c3nc(=O)c4ccccc4n32)c1 (configuration not stated)
O=c1nc2n(c3ccccc13)C(c1ccc(Br)cc1)c1cc3ccccc3nc1-2 (configuration not stated)
O=c1c2ccccc2nc2n1C(c1ccc(Cl)cc1)c1cc3ccccc3nc1-2 (configuration not stated)
O=c1c2ccccc2nc2n1C(c1ccc(F)cc1)c1cc3ccccc3nc1-2 (configuration not stated)
O=c1nc2n(c3ccccc13)C(c1ccc(Cl)cc1)c1cc3ccccc3nc1-2 (configuration not stated)
Cc1ccccc1C1c2cc3ccccc3nc2-c2nc3ccccc3c(=O)n21 (configuration not stated)
O=c1c2ccccc2nc2n1C(c1ccc(C(F)(F)F)cc1)c1cc3ccccc3nc1-2 (configuration not stated)
COc1cccc(C2c3cc4ccccc4nc3-c3nc4ccccc4c(=O)n32)c1 (configuration not stated)
O=c1c2ccccc2nc2n1C(c1ccc(Br)cc1)c1cc3ccccc3nc1-2 (configuration not stated)
COc1cc(C2c3cc4ccccc4nc3-c3nc4ccccc4c(=O)n32)cc(OC)c1OC (configuration not stated)
CSc1ccc(C2c3cc4ccccc4nc3-c3nc(=O)c4ccccc4n32)cc1 (configuration not stated)
Cc1ccc(C2c3cc4ccccc4nc3-c3nc(=O)c4ccccc4n32)cc1 (configuration not stated)
O=c1nc2n(c3ccccc13)C(c1ccc(F)cc1)c1cc3ccccc3nc1-2 (configuration not stated)
COc1cc(C2c3cc4ccccc4nc3-c3nc(=O)c4ccccc4n32)cc(OC)c1OC (configuration not stated)
COc1ccc(C2c3cc4ccccc4nc3-c3nc4ccccc4c(=O)n32)cc1 (configuration not stated)
